{"source": "patent US20220323472A1", "about": "“ANTI-PARASITIC COMPOUNDS FOR THE TREATMENT AND PREVENTION OF VIRAL DISEASES” (priority 2021, published 2022)", "system": "Demodex mites", "experiment": "in vitro Demodex survival time assay (LT50)", "description": "FIG. 4 summarizes the activity of 10% chloroquine in water relative to a water control on activity against Demodex mites in an in vitro assay, with an LT5o of 31.6 hours for chloroquine compared to 44.8 hours for the water control, illustrating the inactivation effect of chloroquine on Demodex.\nAccordingly, chloroquine and ivermectin may be used to treat SAR-CoV-2 by reducing the microbial load or Demodex population of a patient suffering from viral infection.\nIn vitro efficacy and mite lifetimes: Relative efficacy of various formulations are evaluated with a demodex survival time experiments. FIG. 3 tabulates demodex survival time, expressed in terms of LT50 (time at which 50% of demodex mites are killed) and/or average minutes to death for various active agents."}
{"smiles": "CCN(CC)CCCC(C)Nc1ccnc2cc(Cl)ccc12", "note": "(centres unmarked) [chloroquine]", "values": [{"measurement": "LT50 (time at which 50% of demodex mites are killed)", "setting": "10% chloroquine in water, in vitro assay, water control 44.8 hours", "result": 31.6, "unit": "h"}, {"measurement": "ex-vivo activity against Demodex mites", "setting": "in vitro assay (FIGS. 3 and 4)", "result": "some ex-vivo activity"}]}
